Legend:
[1] = molecular target: T1, wildtype Eg5 kinesin motor domain (Homo sapiens, UniProt P52732); experiment: In vitro basal ATPase assay (coupled enzymatic), wildtype Eg5; type: biochemical; conditions: 5 μM motor protein, 1 mM MgATP, 5-22.5 mM NaCl, read-out: IC50, basal ATP hydrolysis
T1 sequence (P52732 1-370): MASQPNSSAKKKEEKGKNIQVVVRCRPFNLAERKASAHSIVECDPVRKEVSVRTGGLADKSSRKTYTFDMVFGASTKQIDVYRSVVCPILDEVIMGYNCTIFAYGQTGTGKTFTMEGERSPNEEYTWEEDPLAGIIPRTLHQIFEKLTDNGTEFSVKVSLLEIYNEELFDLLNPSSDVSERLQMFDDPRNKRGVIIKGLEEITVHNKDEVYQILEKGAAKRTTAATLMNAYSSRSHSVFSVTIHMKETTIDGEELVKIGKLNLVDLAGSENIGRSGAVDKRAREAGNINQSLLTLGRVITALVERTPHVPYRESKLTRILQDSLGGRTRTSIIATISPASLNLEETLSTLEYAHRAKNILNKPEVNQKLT
Procedure: (§1) Basal ATPase activities were measured with a coupled enzymatic assay as previously described (29) with 5 μM motor protein and 1 mM MgATP in a SpectraMax 2E spectrophotometer for high-throughput kinetic measurements as previously described (30). […] Reactions used for calculation of the IC50 values contained between 5 and 22.5 mM NaCl. Data were reproducible with protein samples purified from differing batches of cultured cells from two different laboratories.

[2] = test system: Eg5 E116, D130 and A133 mutants; conditions: all E116, D130 and A133 mutants, to varying degrees
Procedure: as §1

Compound: CCOC(=O)C1=C(C)NC(=S)NC1c1cccc(O)c1 (centres unmarked) [monastrol]
- IC50 [1]: 8 µM

Compound: N[C@@H](CSC(c1ccccc1)(c1ccccc1)c1ccccc1)C(=O)O [STC, S-trityl-L-cysteine]
- sensitivity of mutants to inhibitor [2]: reduced sensitivity

— US9341627B2, “Protein structural biomarkers to guide targeted chemotherapies” (priority 2009, dated 2016)
